In the data set the test system is CCRIS mutagenicity, Ames/micronucleus/aberration tests. As to the kind of experiment: CCRIS mutagenicity studies.
[1] abbreviates: Test System: AMES SALMONELLA TYPHIMURIUM, Strain/Indicator: TA98, Metabolic Activation: NONE, Method: PREINCUBATION
The mark [2] stands for this setting: Test System: AMES SALMONELLA TYPHIMURIUM, Strain/Indicator: TA100, Metabolic Activation: NONE, Method: PREINCUBATION

The source made the active and inactive calls. No rule for the calls is given here.

On to `Cc1ccc(N)c(S(=O)(=O)O)c1`, for which the mutagenic call was “inactive; negative” (Test System: AMES SALMONELLA TYPHIMURIUM, Strain/Indicator: TA98, Metabolic Activation: HAMSTER, LIVER, S-9, AROCLOR 1254, Method: STANDARD PLATE); “inactive; negative” under setting [1]; “inactive; negative” (Test System: AMES SALMONELLA TYPHIMURIUM, Strain/Indicator: TA98, Metabolic Activation: NONE, Method: STANDARD PLATE); “inactive; negative” (Test System: AMES SALMONELLA TYPHIMURIUM, Strain/Indicator: TA98, Metabolic Activation: RAT LIVER S-9, PHENOBARBITAL AND BETA-NAPHTHOFLAVONE, Method: PREINCUBATION); “inactive; negative” (Test System: AMES SALMONELLA TYPHIMURIUM, Strain/Indicator: TA98, Metabolic Activation: RAT, LIVER, S-9, AROCLOR 1254, Method: STANDARD PLATE); “inactive; negative” (Test System: AMES SALMONELLA TYPHIMURIUM, Strain/Indicator: TA100, Metabolic Activation: HAMSTER, LIVER, S-9, AROCLOR 1254, Method: STANDARD PLATE). The mutagenic call under setting [2] is “inactive; negative”; the mutagenic call (Test System: AMES SALMONELLA TYPHIMURIUM, Strain/Indicator: TA100, Metabolic Activation: NONE, Method: STANDARD PLATE) was “inactive; negative”; the mutagenic call (Test System: AMES SALMONELLA TYPHIMURIUM, Strain/Indicator: TA100, Metabolic Activation: RAT LIVER S-9, PHENOBARBITAL AND BETA-NAPHTHOFLAVONE, Method: PREINCUBATION) was “inactive; negative”; the mutagenic call (Test System: AMES SALMONELLA TYPHIMURIUM, Strain/Indicator: TA100, Metabolic Activation: RAT, LIVER, S-9, AROCLOR 1254, Method: STANDARD PLATE) is “inactive; negative”; the mutagenic call (Test System: AMES SALMONELLA TYPHIMURIUM, Strain/Indicator: TA102, Metabolic Activation: NONE, Method: PREINCUBATION) is “inactive; negative”; the mutagenic call (Test System: AMES SALMONELLA TYPHIMURIUM, Strain/Indicator: TA102, Metabolic Activation: RAT LIVER S-9, PHENOBARBITAL AND BETA-NAPHTHOFLAVONE, Method: PREINCUBATION) is “inactive; negative”. In addition, the mutagenic call is, setting by setting: (Test System: AMES SALMONELLA TYPHIMURIUM, Strain/Indicator: TA104, Metabolic Activation: NONE, Method: PREINCUBATION) “inactive; negative”; (Test System: AMES SALMONELLA TYPHIMURIUM, Strain/Indicator: TA104, Metabolic Activation: RAT LIVER S-9, PHENOBARBITAL AND BETA-NAPHTHOFLAVONE, Method: PREINCUBATION) “inactive; negative”; (Test System: AMES SALMONELLA TYPHIMURIUM, Strain/Indicator: TA1535, Metabolic Activation: HAMSTER, LIVER, S-9, AROCLOR 1254, Method: STANDARD PLATE) “inactive; negative”; (Test System: AMES SALMONELLA TYPHIMURIUM, Strain/Indicator: TA1535, Metabolic Activation: NONE, Method: PREINCUBATION) “inactive; negative”; (Test System: AMES SALMONELLA TYPHIMURIUM, Strain/Indicator: TA1535, Metabolic Activation: NONE, Method: STANDARD PLATE) “inactive; negative”; (Test System: AMES SALMONELLA TYPHIMURIUM, Strain/Indicator: TA1535, Metabolic Activation: RAT LIVER S-9, PHENOBARBITAL AND BETA-NAPHTHOFLAVONE, Method: PREINCUBATION) “inactive; negative”. In addition, the mutagenic call was “inactive; negative” (Test System: AMES SALMONELLA TYPHIMURIUM, Strain/Indicator: TA1535, Metabolic Activation: RAT, LIVER, S-9, AROCLOR 1254, Method: STANDARD PLATE); “inactive; negative” (Test System: AMES SALMONELLA TYPHIMURIUM, Strain/Indicator: TA1537, Metabolic Activation: HAMSTER, LIVER, S-9, AROCLOR 1254, Method: STANDARD PLATE); “inactive; negative” (Test System: AMES SALMONELLA TYPHIMURIUM, Strain/Indicator: TA1537, Metabolic Activation: NONE, Method: PREINCUBATION); “inactive; negative” (Test System: AMES SALMONELLA TYPHIMURIUM, Strain/Indicator: TA1537, Metabolic Activation: NONE, Method: STANDARD PLATE); “inactive; negative” (Test System: AMES SALMONELLA TYPHIMURIUM, Strain/Indicator: TA1537, Metabolic Activation: RAT LIVER S-9, PHENOBARBITAL AND BETA-NAPHTHOFLAVONE, Method: PREINCUBATION); “inactive; negative” (Test System: AMES SALMONELLA TYPHIMURIUM, Strain/Indicator: TA1537, Metabolic Activation: RAT, LIVER, S-9, AROCLOR 1254, Method: STANDARD PLATE). Further, the mutagenic call runs as follows: (Test System: AMES SALMONELLA TYPHIMURIUM, Strain/Indicator: TA1538, Metabolic Activation: HAMSTER, LIVER, S-9, AROCLOR 1254, Method: STANDARD PLATE) “inactive; negative”; (Test System: AMES SALMONELLA TYPHIMURIUM, Strain/Indicator: TA1538, Metabolic Activation: NONE, Method: STANDARD PLATE) “inactive; negative”; (Test System: AMES SALMONELLA TYPHIMURIUM, Strain/Indicator: TA1538, Metabolic Activation: RAT, LIVER, S-9, AROCLOR 1254, Method: STANDARD PLATE) “inactive; negative”; (Test System: E.COLI, Strain/Indicator: WP2UVRA/PKM101, Metabolic Activation: NONE, Method: PREINCUBATION) “inactive; negative”; (Test System: E.COLI, Strain/Indicator: WP2UVRA/PKM101, Metabolic Activation: RAT LIVER S-9, PHENOBARBITAL AND BETA-NAPHTHOFLAVONE, Method: PREINCUBATION) “inactive; negative”; (Test System: E.COLI, Strain/Indicator: WP2UVRA, Metabolic Activation: NONE, Method: PREINCUBATION) “inactive; negative”. The mutagenic call runs as follows: (Test System: E.COLI, Strain/Indicator: WP2UVRA, Metabolic Activation: RAT LIVER S-9, PHENOBARBITAL AND BETA-NAPHTHOFLAVONE, Method: PREINCUBATION) “inactive; negative”; (Test System: MOUSE LYMPHOMA, Strain/Indicator: L5178Y (TK+/TK-), Metabolic Activation: NONE, Method: SUSPENSION/PLATE) “inactive; negative. reevaluation of results: negative”; (Test System: MOUSE LYMPHOMA, Strain/Indicator: L5178Y (TK+/TK-), Metabolic Activation: RAT, LIVER, S-9, AROCLOR 1254, Method: SUSPENSION/PLATE) “inactive; negative. reevaluation of results: equivocal”; (Test System: UDS RODENT HEPATOCYTES, Strain/Indicator: THY INCORP (NON-S-PHASE), Metabolic Activation: NONE, Method: AUTORADIOGRAPHY) “inactive; negative”.

For `Nc1ccc(Oc2ccccc2)cc1`, the mutagenic call under setting [1] was “inactive; negative”; the mutagenic call (Test System: AMES SALMONELLA TYPHIMURIUM, Strain/Indicator: TA98, Metabolic Activation: RAT, BLADDER, S-9, PCB, Method: FLUCTUATION TEST) was “active; positive”; the mutagenic call (Test System: AMES SALMONELLA TYPHIMURIUM, Strain/Indicator: TA98, Metabolic Activation: RAT, LIVER, S-9, PCB, Method: PREINCUBATION) was “active; positive”; the mutagenic call (Test System: AMES SALMONELLA TYPHIMURIUM, Strain/Indicator: TA100, Metabolic Activation: GUINEA PIG, LIVER, S-9, KANECLOR 500, Method: STANDARD PLATE) is “active; positive”; the mutagenic call under setting [2] is “inactive; negative”; the mutagenic call (Test System: AMES SALMONELLA TYPHIMURIUM, Strain/Indicator: TA100, Metabolic Activation: RAT, BLADDER, S-9, PCB, Method: FLUCTUATION TEST) is “active; positive”. Further, the mutagenic call (Test System: AMES SALMONELLA TYPHIMURIUM, Strain/Indicator: TA100, Metabolic Activation: RAT, LIVER, S-9, PCB, Method: PREINCUBATION) was “active; positive”.
